Target: T1, PI3Kβ (Homo sapiens, UniProt P42338)
T1 construct: made in house
Test: HTRF in vitro profiling assay for PI3K inhibition (beta isoform)
Format: biochemical
Details: 200 pM enzyme, 100 uM ATP, 10 uM PIP2, 150 mM NaCl, corrected pIC50, single run or average of two or more runs, read-out: PI3K b pIC50 (converted)
Protocol: Compounds of the present invention were tested according to the following assays and found as inhibitors of PI3 kinases, particularly PI3Kβ. […] The IC50 value can be converted and presented as pIC50 value.
HTRF In Vitro Profiling Assays for PI3K Inhibition
The PI3-Kinase profiling assays were developed to measure the compound-dependent inhibition of the alpha, beta, delta, and gamma isoforms of PI3K in an in vitro catalytic assay. This assay was developed and optimized from a kit produced by Upstate (Millipore catalog #33-017). Briefly, this procedure utilizes a pre-formed HTRF (Homogeneous Time-Resolved Fluorescence energy transfer) complex between four binding partners: 1) biotinylated PIP3, 2) GST tagged pleckstrin homology (PH) domain, 3) Europium labeled anti-GST monoclonal antibody, and 4) Streptavidin-Allophycocyanin (APC). The native PIP3 produced by PI 3-Kinase activity displaces biotin-PIP3 from the PH domain, resulting in the dissociation of the HTRF complex and a decrease in the fluorescence signal. The format of this assay is the same for all 4 isoforms of PI3K; the differences lie in the concentration of enzyme used to achieve the most robust signal. The alpha and delta assays are run at 400 pM enzyme; the beta assay is at 200 pM enzyme and the gamma assay is run at 1 nM enzyme. In addition, the alpha, beta and delta assays are run with 150 mM NaCl while the gamma assay is run in the absence of NaCl. The ATP concentration is 100 uM in the alpha, beta, and delta assays and 15 uM ATP in the gamma assay. All reactions are run at 10 uM PIP2
Compounds were serially diluted (3-fold in 100% DMSO) across a 384-well polypropylene mother plate from column 1 to column 12 and column 13 to column 24, to yield 11 concentrations for each test compound. Columns 6 and 18 contain only DMSO. Once titrations were made, 0.05 μL was transferred to a 384-well low-volume assay plate (Greiner 784076). This assay plate contained three pharmacological controls (known PI3K inhibitors) and 3 assay controls: (1) Enzyme without inhibitor; (2) Buffer minus enzyme, and (3) Buffer minus enzyme plus native PIP3. DMSO was stamped into all wells of columns 6 and 18. PIP3 was added at 40 μM in 1× Reaction buffer (1 μL of 200 μM PIP3) to alternating rows of column 18 (wells 18 B, D, F, H, J, L, N, P). The no-enzyme control reactions were run in wells 18 A, C, E, G, I, K, M, O (0.1 μL of 100% DMSO).
The PI3-Kinase profiling assay was optimized using the HTRF kit provided by Upstate (Millipore). The assay kit contained seven reagents: 1) 4× Reaction Buffer; 2) native PIP2 (substrate); 3) Stop A (EDTA); 4) Stop B (Biotin-PIP3); 5) Detection Mix A (Streptavidin-APC); 6) Detection Mix B (Eu-labeled Anti-GST plus GST-tagged PH-domain); 7) Detection Mix C (KF). In addition, the following items were obtained or purchased: PI3Kinase (prepared by GSK BR&AD), dithiothreitol (Sigma, D-5545), Adenosine-5′-triphosphate (ATP, Teknova cat. # A0220), native PIP3 (1,2-dioctanoyl-sn-glycero-3-[phosphoinositil-3,4,5-triphosphate]tetraammonium salt (Avanti polar lipids, 850186P), DMSO (Sigma, 472301).
PI3Kinase Reaction Buffer was prepared by diluting the stock 1:4 with de-ionized water. Freshly prepared DTT was added at a final concentration of 5 mM on the day of use. Enzyme addition and compound pre-incubation were initiated by the addition of 2.5 μL of PI3K (at twice its final concentration) in 1× reaction buffer to all wells using a Multidrop Combi. Plates were incubated at room temperature for 15 minutes. Reactions were initiated by addition of 2.5 μL of 2× substrate solution (PIP2 and ATP in 1× reaction buffer) using a Multidrop Combi. Plates were incubated at room temperature for one hour. Reactions were quenched by the addition of 2.5 μL of stop solution (Stop A and Stop B pre-mixed at a ratio of 5:1, respectively) to all wells using the Multidrop Combi. […]

T1 sequence (P42338 whole entry): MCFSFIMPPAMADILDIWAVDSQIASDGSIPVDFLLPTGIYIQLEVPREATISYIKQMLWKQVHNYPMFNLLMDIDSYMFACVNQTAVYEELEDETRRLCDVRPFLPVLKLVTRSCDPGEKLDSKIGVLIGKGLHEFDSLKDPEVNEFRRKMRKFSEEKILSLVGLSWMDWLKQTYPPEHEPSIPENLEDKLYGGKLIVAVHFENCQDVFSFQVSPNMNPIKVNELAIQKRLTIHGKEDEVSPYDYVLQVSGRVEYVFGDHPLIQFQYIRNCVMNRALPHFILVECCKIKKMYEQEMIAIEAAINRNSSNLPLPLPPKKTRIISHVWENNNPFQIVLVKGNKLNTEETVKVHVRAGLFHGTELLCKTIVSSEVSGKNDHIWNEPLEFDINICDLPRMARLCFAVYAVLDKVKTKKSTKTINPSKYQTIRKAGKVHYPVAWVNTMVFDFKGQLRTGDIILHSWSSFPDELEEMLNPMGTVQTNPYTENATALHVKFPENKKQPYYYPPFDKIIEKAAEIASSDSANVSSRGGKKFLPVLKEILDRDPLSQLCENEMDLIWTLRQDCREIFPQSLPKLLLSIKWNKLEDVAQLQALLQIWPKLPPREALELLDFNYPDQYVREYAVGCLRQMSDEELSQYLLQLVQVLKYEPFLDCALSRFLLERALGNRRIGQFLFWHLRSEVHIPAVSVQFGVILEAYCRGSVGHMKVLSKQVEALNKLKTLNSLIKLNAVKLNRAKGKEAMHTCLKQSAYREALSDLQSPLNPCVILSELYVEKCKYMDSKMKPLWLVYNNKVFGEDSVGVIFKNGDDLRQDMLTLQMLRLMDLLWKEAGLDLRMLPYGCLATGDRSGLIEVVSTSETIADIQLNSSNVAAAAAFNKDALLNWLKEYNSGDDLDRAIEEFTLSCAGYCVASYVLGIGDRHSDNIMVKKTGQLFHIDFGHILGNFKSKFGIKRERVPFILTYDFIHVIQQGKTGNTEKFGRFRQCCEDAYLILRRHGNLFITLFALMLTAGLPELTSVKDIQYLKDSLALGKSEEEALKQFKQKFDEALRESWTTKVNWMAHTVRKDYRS
T1 sequence (P27986 whole entry partner): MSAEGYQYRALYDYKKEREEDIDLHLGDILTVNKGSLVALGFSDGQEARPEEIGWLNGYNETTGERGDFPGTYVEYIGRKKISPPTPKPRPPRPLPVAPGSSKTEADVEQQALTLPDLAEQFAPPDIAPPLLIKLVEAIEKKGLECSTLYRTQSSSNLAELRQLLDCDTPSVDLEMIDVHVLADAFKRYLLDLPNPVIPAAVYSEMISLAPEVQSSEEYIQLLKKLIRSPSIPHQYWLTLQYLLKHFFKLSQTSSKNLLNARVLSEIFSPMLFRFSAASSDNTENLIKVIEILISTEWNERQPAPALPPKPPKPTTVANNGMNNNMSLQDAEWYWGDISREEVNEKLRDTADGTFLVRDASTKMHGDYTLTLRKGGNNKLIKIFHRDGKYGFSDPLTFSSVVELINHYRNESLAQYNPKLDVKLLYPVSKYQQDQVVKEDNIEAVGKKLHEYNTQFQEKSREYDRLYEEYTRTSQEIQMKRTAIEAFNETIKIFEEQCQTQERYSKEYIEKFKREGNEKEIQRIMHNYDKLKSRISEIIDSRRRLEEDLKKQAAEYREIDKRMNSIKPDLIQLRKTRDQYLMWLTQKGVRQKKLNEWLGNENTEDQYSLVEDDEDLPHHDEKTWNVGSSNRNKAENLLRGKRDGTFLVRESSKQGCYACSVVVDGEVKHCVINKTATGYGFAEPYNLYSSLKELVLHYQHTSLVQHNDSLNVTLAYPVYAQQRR

Row | IC50 | Structure (SMILES)
1 | 0.398 nM | Cc1c(Cn2c(C)nc3c(B(O)O)cc(N4CCOCC4)cc32)cccc1C(F)(F)F [Example 4, (2-methyl-1-(2-methyl-3-(trifluoromethyl)benzyl)-6-morpholino-1H-benzo[d]imidazol-4-yl)boronic acid]
2 | 0.2 nM | Cc1c(Cl)cccc1Cn1c(C)nc2c(B(O)O)cc(N3CCOCC3)cc21 [Example 5, (1-(3-chloro-2-methylbenzyl)-2-methyl-6-morpholino-1H-benzo[d]imidazol-4-yl)boronic acid]
3 | 0.501 nM | Cc1nc2c(B(O)O)cc(N3CCOCC3)cc2n1Cc1cccc2ccccc12 [Example 6, (2-methyl-6-morpholino-1-(naphthalen-1-ylmethyl)-1H-benzo[d]imidazol-4-yl)boronic acid]
4 | 0.501 nM | Cc1cccc(Cn2c(C)nc3c(B(O)O)cc(N4CCOCC4)cc32)c1C [Example 7, (1-(2,3-dimethylbenzyl)-2-methyl-6-morpholino-1H-benzo[d]imidazol-4-yl)boronic acid]
5 | 0.501 nM | Cc1nc2c(B(O)O)cc(N3CCOCC3)cc2n1Cc1cccc(Cl)c1Cl [Example 8, (1-(2,3-dichlorobenzyl)-2-methyl-6-morpholino-1H-benzo[d]imidazol-4-yl)boronic acid]
6 | 1.26 nM | Cc1nc2c(B(O)O)cc(N3CCOCC3)cc2n1Cc1cccc2ccsc12 [Example 9]
7 | 63.1 nM | Cc1cccc(Cn2c(C)nc3c(B(O)O)cc(N4CCOCC4)cc32)c1 [Example 10, (2-methyl-1-(3-methylbenzyl)-6-morpholino-1H-benzo[d]imidazol-4-yl)boronic acid]
8 | 10 nM | Cc1ccccc1Cn1c(C)nc2c(B(O)O)cc(N3CCOCC3)cc21 [Example 11, (2-methyl-1-(2-methylbenzyl)-6-morpholino-1H-benzo[d]imidazol-4-yl)boronic acid]
9 | 39.8 nM | Cc1nc2c(B(O)O)cc(N3CCOCC3)cc2n1Cc1ccccc1Cl [Example 12, (1-(2-chlorobenzyl)-2-methyl-6-morpholino-1H-benzo[d]imidazol-4-yl)boronic acid]
10 | 63.1 nM | Cc1nc2c(B(O)O)cc(N3CCOCC3)cc2n1Cc1cccc(Cl)c1 [Example 13, (1-(3-chlorobenzyl)-2-methyl-6-morpholino-1H-benzo[d]imidazol-4-yl)boronic acid]
11 | 1.58 nM | Cc1c(Cn2cnc3c(B(O)O)cc(N4CCOCC4)cc32)cccc1C(F)(F)F [Example 14, (1-(2-methyl-3-(trifluoromethyl)benzyl)-6-morpholino-1H-benzo[d]imidazol-4-yl)boronic acid]
12 | 1.26 nM | Cc1c(Cl)cccc1Cn1cnc2c(B(O)O)cc(N3CCOCC3)cc21 [Example 15, (1-(3-chloro-2-methylbenzyl)-6-morpholino-1H-benzo[d]imidazol-4-yl)boronic acid]
13 | 0.0631 nM | Cc1c(Cn2c(CF)nc3c(B(O)O)cc(N4CCOCC4)cc32)cccc1C(F)(F)F [Example 16, (2-(fluoromethyl)-1-(2-methyl-3-(trifluoromethyl)benzyl)-6-morpholino-1H-benzo[d]imidazol-4-yl)boronic acid]
14 | 0.0631 nM | Cc1c(Cl)cccc1Cn1c(CF)nc2c(B(O)O)cc(N3CCOCC3)cc21 [Example 17, (1-(3-chloro-2-methylbenzyl)-2-(fluoromethyl)-6-morpholino-1H-benzo[d]imidazol-4-yl)boronic acid]
15 | 0.2 nM | Cc1c(Cn2c(CO)nc3c(B(O)O)cc(N4CCOCC4)cc32)cccc1C(F)(F)F [Example 18, (2-(hydroxymethyl)-1-(2-methyl-3-(trifluoromethyl)benzyl)-6-morpholino-1H-benzo[d]imidazol-4-yl)boronic acid]
16 | 0.0794 nM | Cc1c(Cl)cccc1Cn1c(C(F)F)nc2c(B(O)O)cc(N3CCOCC3)cc21 [Example 19, (1-(3-chloro-2-methylbenzyl)-2-(difluoromethyl)-6-morpholino-1H-benzo[d]imidazol-4-yl)boronic acid]
17 | 0.126 nM | Cc1c(Cn2c(C(F)F)nc3c(B(O)O)cc(N4CCOCC4)cc32)cccc1C(F)(F)F [Example 20, (2-(difluoromethyl)-1-(2-methyl-3-(trifluoromethyl)benzyl)-6-morpholino-1H-benzo[d]imidazol-4-yl)boronic acid]
18 | 0.0794 nM | Cc1c(Cl)cccc1Cn1c(C(F)(F)F)nc2c(B(O)O)cc(N3CCOCC3)cc21 [Example 21, (1-(3-chloro-2-methylbenzyl)-6-morpholino-2-(trifluoromethyl)-1H-benzo[d]imidazol-4-yl)boronic acid]
19 | 3.16 nM | Cc1c(Cn2c(C(C)C)nc3c(B(O)O)cc(N4CCOCC4)cc32)cccc1C(F)(F)F [Example 22, (2-isopropyl-1-(2-methyl-3-(trifluoromethyl)benzyl)-6-morpholino-1H-benzo[d]imidazol-4-yl)boronic acid]
20 | 1.26 nM | Cc1c(Cn2c(C3CC3)nc3c(B(O)O)cc(N4CCOCC4)cc32)cccc1C(F)(F)F [Example 23, (2-cyclopropyl-1-(2-methyl-3-(trifluoromethyl)benzyl)-6-morpholino-1H-benzo[d]imidazol-4-yl)boronic acid]
